# “And” between values parts separate entries of the source, which are not always exact repeats. Equal values may be shown once.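 Five compound concentrations were applied to cells in 96-well plates for 48 hours; endpoints were derived by simple linear interpolation of the resulting dose-response curve. GI50: concentration for 50% inhibition of growth. TGI is the concentration that stops growth completely.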
# Experiments:
# Assay in all cases: NCI tumour cell line growth inhibition, 48 h
# [1] = system: SW-620 colon
# [2] = system: P388 leukemia
# [3] = system: SN12C renal
# [4] = system: SK-MEL-2 melanoma
# [5] = system: UO-31 renal
# [6] = system: KM20L2 colon
# [7] = system: DLD-1 colon
# [8] = system: EKVX NSCLC
# [9] = system: KM12 colon
# [10] = system: SR leukemia
# [11] = system: NCI-H460 lung
# [12] = system: MCF7 breast
# [13] = system: CCRF-CEM leukemia
# [14] = system: UACC-257 melanoma
# [15] = system: SF-268 CNS
# [16] = system: K-562 leukemia
# [17] = system: HCT-116 colon
# [18] = system: 786-0 renal
# [19] = system: A498 renal
# [20] = system: OVCAR-4 ovarian
# [21] = system: U251 CNS
# [22] = system: OVCAR-8 ovarian
# [23] = system: LOX IMVI melanoma
# [24] = system: RPMI-8226 leukemia
# [25] = system: HT29 colon
# [26] = system: XF 498 CNS
# [27] = system: HOP-92 NSCLC
# [28] = system: HOP-62 NSCLC
# [29] = system: IGROV1 ovarian
# [30] = system: NCI/ADR-RES ovarian
# [31] = system: COLO 205 colon
# [32] = system: SF-539 CNS
# [33] = system: SN12K1 renal
# [34] = system: CAKI-1 renal
# [35] = system: HCC-2998 colon
# [36] = system: OVCAR-5 ovarian
# [37] = system: HL-60(TB) leukemia
# [38] = system: HCT-15 colon
# [39] = system: UACC-62 melanoma
# [40] = system: BT-549 breast
# [41] = system: T-47D breast
# [42] = system: SK-MEL-5 melanoma
# [43] = system: SNB-19 CNS
# [44] = system: NCI-H522 lung
# [45] = system: A549 NSCLC
# [46] = system: SK-MEL-28 melanoma
# [47] = system: SNB-75 CNS
# [48] = system: TK-10 renal
# [49] = system: SK-OV-3 ovarian
# [50] = system: DMS 273 small cell lung
# [51] = system: SF-295 CNS
# [52] = system: RXF 393 renal
# [53] = system: NCI-H23 lung
# [54] = system: OVCAR-3 ovarian
# [55] = system: M19-MEL melanoma
# [56] = system: LXFL 529 NSCLC
# [57] = system: M14 melanoma
# [58] = system: MOLT-4 leukemia
# [59] = system: SNB-78 CNS
# [60] = system: DMS 114 small cell lung
# [61] = system: MDA-MB-231 breast
# [62] = system: MALME-3M melanoma
# [63] = system: ACHN renal
# [64] = system: RXF-631 renal
# [65] = system: HOP-18 NSCLC
# [66] = system: NCI-H226 lung
smiles,measurement,setting,value
CCOC(=O)Nc1ccc2c(c1)N(C(=O)CCN(CC)CC)c1ccccc1S2,GI50,[1],52.5 µM
same,TGI,[1],59.3 µM and 122 µM
same,TGI,[2],32.2 µM
same,GI50,[3],24.3 µM
same,TGI,[3],> 76.8 µM and 85.3 µM
same,GI50,[4],30.5 µM
same,TGI,[4],43.6 µM and 83.7 µM
same,TGI,[5],> 89.5 µM
same,GI50,[6],13.9 µM
same,TGI,[6],38.7 µM and 39.7 µM
same,GI50,[7],32.9 µM
same,TGI,[7],> 87.6 µM and 105 µM
same,GI50,[8],74.2 µM
same,TGI,[8],141 µM
same,GI50,[9],35.9 µM
same,TGI,[9],24.6 µM and 110 µM
same,TGI,[10],43.4 µM
same,TGI,[11],57.1 µM
same,GI50,[12],31.3 µM
same,TGI,[12],> 94.3 µM
same,GI50,[13],17 µM
same,TGI,[13],> 91.2 µM and 66.9 µM
same,GI50,[14],12.4 µM
same,TGI,[14],32.3 µM and 35.4 µM
same,GI50,[15],55 µM
same,TGI,[15],> 74.6 µM and 128 µM
same,GI50,[16],19.7 µM
same,TGI,[16],> 81.8 µM
same,GI50,[17],12.5 µM
same,TGI,[17],> 31.6 µM and 39.9 µM
same,TGI,[18],69.8 µM
same,GI50,[19],33.3 µM
same,TGI,[19],58.9 µM and 99.7 µM
same,GI50,[20],84 µM
same,TGI,[20],234 µM
same,GI50,[21],39.8 µM
same,TGI,[21],> 72.1 µM and 108 µM
same,GI50,[22],1.51 µM
same,TGI,[22],2.5 µM
same,TGI,[23],37.6 µM and 67 µM
same,GI50,[24],13 µM
same,TGI,[24],51 µM and 47.5 µM
same,GI50,[25],29.6 µM
same,TGI,[25],33.9 µM and 96.4 µM
same,GI50,[26],0.626 µM
same,TGI,[26],33.4 µM and 10 µM
same,GI50,[27],14.2 µM
same,TGI,[27],67.8 µM and 73.5 µM
same,GI50,[28],44.2 µM
same,TGI,[28],134 µM
same,GI50,[29],64 µM
same,TGI,[29],> 94.1 µM and 138 µM
same,TGI,[30],86.8 µM
same,GI50,[31],47 µM
same,TGI,[31],47.7 µM and 120 µM
same,GI50,[32],12.7 µM
same,TGI,[32],48.5 µM and 43.5 µM
same,TGI,[33],95.3 µM
same,GI50,[34],11.4 µM
same,TGI,[34],30.6 µM
same,TGI,[35],32.8 µM and 75.7 µM
same,GI50,[36],101 µM
same,TGI,[36],99.9 µM and 178 µM
same,GI50,[37],16.1 µM
same,TGI,[37],45.9 µM and 57.7 µM
same,GI50,[38],35.7 µM
same,TGI,[38],> 79.5 µM and 99.4 µM
same,GI50,[39],46.7 µM
same,TGI,[39],52.8 µM and 112 µM
same,TGI,[40],97.2 µM
same,TGI,[41],87.9 µM
same,GI50,[42],36.1 µM
same,TGI,[42],34.3 µM and 100 µM
same,GI50,[43],13.5 µM
same,TGI,[43],41.1 µM
same,GI50,[44],17 µM
same,TGI,[44],37.1 µM and 167 µM
same,GI50,[45],58.3 µM
same,TGI,[45],125 µM
same,GI50,[46],60.3 µM
same,TGI,[46],57.1 µM and 126 µM
same,GI50,[47],11.7 µM
same,TGI,[47],39.2 µM and 62.7 µM
same,TGI,[48],76.6 µM
same,GI50,[49],106 µM
same,TGI,[49],70.7 µM and 183 µM
same,TGI,[50],> 68.8 µM and 77.9 µM
same,TGI,[51],54.4 µM
same,GI50,[52],15.4 µM
same,TGI,[52],64.1 µM and 59.5 µM
same,GI50,[53],36.4 µM
same,TGI,[53],> 90.5 µM and 114 µM
same,GI50,[54],42.3 µM
same,TGI,[54],> 78.9 µM and 107 µM
same,GI50,[55],56.2 µM
same,TGI,[55],> 71.1 µM and 124 µM
same,TGI,[56],42.5 µM
same,TGI,[57],48.6 µM
same,GI50,[58],13.7 µM
same,TGI,[58],71.1 µM and 44.3 µM
same,GI50,[59],41 µM
same,GI50,[60],36.2 µM
same,TGI,[60],40.6 µM and 99.6 µM
same,TGI,[61],95.1 µM
same,GI50,[62],29.1 µM
same,TGI,[62],34.4 µM and 70.3 µM
same,TGI,[63],> 95.5 µM
CC(=O)CC(=O)NC=O,TGI,[1],> 100 µM
same,TGI,[3],> 100 µM
same,TGI,[4],> 100 µM
same,TGI,[5],> 100 µM
same,TGI,[6],> 100 µM
same,TGI,[7],> 100 µM
same,TGI,[8],> 100 µM
same,TGI,[9],> 100 µM
same,TGI,[10],> 100 µM
same,TGI,[11],> 100 µM
same,TGI,[13],> 100 µM
same,TGI,[14],> 100 µM
same,TGI,[15],> 100 µM
same,TGI,[16],> 100 µM
same,TGI,[17],> 100 µM
same,TGI,[18],> 100 µM
same,TGI,[19],> 100 µM
same,TGI,[20],> 100 µM
same,TGI,[21],> 100 µM
same,TGI,[22],> 100 µM
same,TGI,[24],> 100 µM
same,TGI,[25],> 100 µM
same,TGI,[26],> 100 µM
same,TGI,[27],> 100 µM
same,TGI,[28],> 100 µM
same,TGI,[29],> 100 µM
same,TGI,[31],> 100 µM
same,TGI,[32],> 100 µM
same,TGI,[34],> 100 µM
same,TGI,[35],> 100 µM
same,TGI,[64],> 100 µM
same,TGI,[36],> 100 µM
same,TGI,[37],> 100 µM
same,TGI,[38],> 100 µM
same,TGI,[39],> 100 µM
same,TGI,[42],> 100 µM
same,TGI,[43],> 100 µM
same,TGI,[44],> 100 µM
same,TGI,[45],> 100 µM
same,TGI,[46],> 100 µM
same,TGI,[65],> 100 µM
same,TGI,[47],> 100 µM
same,TGI,[48],> 100 µM
same,TGI,[49],> 100 µM
same,TGI,[66],> 100 µM
same,TGI,[50],> 100 µM
same,TGI,[51],> 100 µM
same,TGI,[52],> 100 µM
same,TGI,[53],> 100 µM
same,TGI,[54],> 100 µM
same,TGI,[55],> 100 µM
same,TGI,[56],> 100 µM
same,TGI,[57],> 100 µM
same,TGI,[58],> 100 µM
same,TGI,[59],> 100 µM
same,TGI,[60],> 100 µM
same,TGI,[62],> 100 µM
same,TGI,[63],> 100 µM
